What all share (type): cell-based, HIV-1
One assay deals with NL4(538/P7-AG). Nature of the assay: Viral isolate resistance assay per Markowitz et al., NL4(538/P7-AG). Particulars: Human immunodeficiency virus 1; Table 10; NL4(P22-538) selected against Example 12, 7 passages. The source says:
RF represents the HIV-1 strain HIV-LRF and RFR represents a mixture of resistant strains obtained by selection of RF against the compound of Example 1. RFR comprises a mixture of viral strains having protease genotypes of G48V (14/40 clones); G48V, V82A (18/40 clones); G48V, L90S (2/40 clones); G48V, 154T, V82A (1/40 clones); G48M (1/40 clones); G48V, Q61H (1/40 clones); V13I, G48V (1/40 clones); G48V, F53L, V82A (1/40 clones); and G48V, V82A, C95Y (1/40 clones). RFR2 represents a mixture of resistant strains obtained by cloning RFR by three rounds of growth at limiting dilution. RFR2 comprises a mixture of viral strains having protease genotypes of G48V, V82A (13/15 clones); G17E, G48V, V82A (1/15 clones); and G48V, V82A, N37D, N88D (1/15 clones). RFRR represents a mixture of resistant strains obtained by selection of RF against the compounds of Examples 1 and 2 and then cloning by three rounds of growth at limiting dilution. RFRR comprises a mixture of viral strains having protease genotypes of G48V, 154T, L63P, V82A (7/9 clones); G48V, 154T, L63P, V82A, N88S (1/9 clones); and G48V, 154T, L63P, G73M, V82A (1/9 clones). SF162 represents the HIV-1 strain SF-162 and SF162R represents a mixture of resistant strains obtained by selection of SF162 against the compound of Example 1. SF162R comprises a mixture of viral strains having protease genotypes of M461, F53L, L63P, A71V, N88D (2/3 clones); and M46I, F53L, L63P, A71V, N88D, Q92R (1/3 clones). 89-959 represents the HIV-1 strain 89-959 and 89-959R represents a mixture of resistant strains obtained by selection of 89-959 against the compound of Example 2. 89-959R comprises a mixture of viral strains having protease genotypes of N88S (4/5 clones); and D25N, T26A, D30N, D37N, R41K, G73D, R87K, N88S (1/4 clones). NL4 represents the HIV-1 strain HIV-1NL4-3. NL4(G48V) represents a strain having a synthetically generated site-directed mutation in the protease from glycine to valine at amino acid position number 48. NL4(I84V) represents a strain having a synthetically generated site-directed mutation in the protease from isoleucine to valine at amino acid position number 84. NL4(R8Q,M46I) represents a strain having synthetically generated site-directed mutations in the protease from arginine to glutamine at amino acid position number 8 and methionine to isoleucine at amino acid position number 46. NL4(P22-538) represents a mixture of resistant strains obtained by selection of HIV-1NL4-3 against the compound of Example 10 after 22 passages comprising protease genotypes M46I, L63P, A71V, V82F, I84V (4/10); M46I, L63P, V82F, I84V (3/10); and M46I, A71V, V82F, I84V (3/10). NL4(P37-538) represents resistant strains obtained by selection of HIV-1NL4-3 against the compound of Example 10 after 37 passages comprising protease genotype M46I, L63P, A71V, 184A. NL4(538/524) represents resistant strains obtained by selection of NL4(P22-538) against the compound of Example 5 after 24 passages comprising protease genotype M46I, L63P, A71V, 184A. NL4(538/P7-AG) represents a mixture of resistant strains obtained by selection of NL4(P22-538) against the compound of Example 12 after 7 passages comprising protease genotypes M46I, L63P, A71V, 184A; and V321, V82I. NL4(538/P24-AG) represents resistant strains obtained by selection of NL4(P22-538) against the compound of Example 12 after 24 passages comprising protease genotype M46I, L63P, A71V, 184A. […]

Another assay deals with NL4(R8Q,M46I). The assay is described as follows: Viral isolate resistance assay per Markowitz et al., NL4(R8Q,M46I). Particulars: Human immunodeficiency virus 1, read-out: Virus Isolate (EC50 nM) NL4(R8O, M46I). From the text: (§1) RF represents the HIV-1 strain HIV-LRF and RFR represents a mixture of resistant strains obtained by selection of RF against the compound of Example 1. RFR comprises a mixture of viral strains having protease genotypes of G48V (14/40 clones); G48V, V82A (18/40 clones); G48V, L90S (2/40 clones); G48V, 154T, V82A (1/40 clones); G48M (1/40 clones); G48V, Q61H (1/40 clones); V13I, G48V (1/40 clones); G48V, F53L, V82A (1/40 clones); and G48V, V82A, C95Y (1/40 clones). RFR2 represents a mixture of resistant strains obtained by cloning RFR by three rounds of growth at limiting dilution. RFR2 comprises a mixture of viral strains having protease genotypes of G48V, V82A (13/15 clones); G17E, G48V, V82A (1/15 clones); and G48V, V82A, N37D, N88D (1/15 clones). RFRR represents a mixture of resistant strains obtained by selection of RF against the compounds of Examples 1 and 2 and then cloning by three rounds of growth at limiting dilution. RFRR comprises a mixture of viral strains having protease genotypes of G48V, 154T, L63P, V82A (7/9 clones); G48V, 154T, L63P, V82A, N88S (1/9 clones); and G48V, 154T, L63P, G73M, V82A (1/9 clones). SF162 represents the HIV-1 strain SF-162 and SF162R represents a mixture of resistant strains obtained by selection of SF162 against the compound of Example 1. SF162R comprises a mixture of viral strains having protease genotypes of M461, F53L, L63P, A71V, N88D (2/3 clones); and M46I, F53L, L63P, A71V, N88D, Q92R (1/3 clones). 89-959 represents the HIV-1 strain 89-959 and 89-959R represents a mixture of resistant strains obtained by selection of 89-959 against the compound of Example 2. 89-959R comprises a mixture of viral strains having protease genotypes of N88S (4/5 clones); and D25N, T26A, D30N, D37N, R41K, G73D, R87K, N88S (1/4 clones). NL4 represents the HIV-1 strain HIV-1NL4-3. NL4(G48V) represents a strain having a synthetically generated site-directed mutation in the protease from glycine to valine at amino acid position number 48. […]

In a further assay the test system is NLA(P19-003). Nature of the assay: Viral isolate resistance assay per Markowitz et al., NLA(P19-003). To be noted: Human immunodeficiency virus 1, read-out: Virus Isolate (EC50 nM) NLA(P19-003).
Text: as §1

Another assay concerns NL4(P34-003). Nature of the assay: Viral isolate resistance assay per Markowitz et al., NL4(P34-003). To be noted: Human immunodeficiency virus 1; Table 11; selected against Example 9, 34 passages.
Text: as §1

Structures are written as SMILES.

In the case of `CC(C)(C)NC(=O)[C@@H]1CC2CCCC[C@@H]2CN1C[C@@H](O)[C@H](Cc1ccccc1)NC(=O)[C@H](CC(N)=O)NC(=O)c1ccc2ccccc2n1` (stereo in doubt) [Example 6, N-tert-Butyl decahydro-2-[2(R)-hydroxy-4-phenyl-3(S)-[[N-(2-quinolylcarbonyl)-L-asparaginyl]amino]butyl]-(4aR,8aS)-isoquinoline-3(S)-carboxamide], in the assay with NL4(538/P7-AG), the EC50 stood at 2400 nM.

Regarding `CC(C)(C)NC(=O)[C@@H]1CN(Cc2cccnc2)CCN1C[C@@H](O)C[C@@H](Cc1ccccc1)C(=O)N[C@H]1c2ccccc2C[C@H]1O` [Example 5, N-(2(R)-Hydroxy-1(S)-indanyl)-2(R)-phenylmethyl-4(S)-hydroxy-5-(1-(4-(3-pyridylmethyl)-2(S)-N′-(t-butylcarboxamido)-piperazinyl))-pentaneamide], the EC50 in the assay with NL4(538/P7-AG) came out at 6400 nM; in the assay on NL4(R8Q,M46I) it was 240 nM; with NLA(P19-003), 240 nM; with NL4(P34-003), 400 nM.

These data come from patent publication US20030207813A1, “Retroviral protease inhibitor combinations” (priority 1995, published 2003).
